Experimental data: the NIST ThermoML archive (doi:10.1021/je034251+)
± gives the expanded uncertainty stated by the source.

Conditions: for mass density: isochoric method

COC [dimethyl ether]
Conditions | Critical temperature [K] | mass density [kg/m3]
301.82 K, Liquid | – | 654.54 ± 0.33
320.08 K, Liquid | – | 623.9 ± 0.33
330.63 K, Liquid | – | 604.34 ± 0.33
339.47 K, Liquid | – | 585.82 ± 0.33
347.34 K, Liquid | – | 567.13 ± 0.32
359 K, Liquid | – | 540.45 ± 0.32
365.69 K, Liquid | – | 522.25 ± 0.32
366.69 K, Gas | – | 66.75 ± 0.2
372.15 K, Liquid | – | 503.13 ± 0.32
378.81 K, Liquid | – | 479.19 ± 0.32
380.95 K, Gas | – | 96.42 ± 0.2
384.5 K, Liquid | – | 454.66 ± 0.32
390.86 K, Gas | – | 130.05 ± 0.21
393.65 K, Liquid | – | 405.87 ± 0.32
396.06 K, Gas | – | 161.3 ± 0.22
398.21 K, Liquid | – | 361.58 ± 0.34
399.34 K, Gas | – | 203.55 ± 0.28
400.32 K, Liquid | – | 299.12 ± 0.43
400.35 K, Gas | – | 253.84 ± 0.54
400.35 K, Liquid | – | 285.01 ± 0.47
400.36 K, Gas | – | 264.02 ± 0.63
400.36 K, Liquid | – | 278.92 ± 0.49
400.38 K, Liquid | – | 276.19 ± 0.5
Liquid, Visual observation in an unstirred cell | 400.38 ± 0.062 | –

Conditions | Critical density [kg/m3]
Liquid | 272 ± 2
